A value given as a limit tells only on which side of the number the result lay.

Results on five compounds are retold here after US10905703B2, “Preparation of a composition containing stilbene glycoside” (priority 2015, dated 2021).

The subject of one data set is male CF-1 mice. Kind of data set: Animal study with pure trans- and cis-stilbene glycoside in high fat diet induced male CF-1 mice. It counts as in vivo. The note with it: for serum glucose level / GTT: rise in blood glucose level / effect on glucose intolerance / serum insulin levels: 0.01% in drinking water; for serum glucose level: HFD for 12 weeks, FIG. 12; for GTT: rise in blood glucose level / effect on glucose intolerance / serum insulin levels: HFD 12 weeks; for GTT: rise in blood glucose level / effect on glucose intolerance: intraperitoneal glucose; for serum insulin levels: vs HF group. From the text:
Male CF-1 mice were selected as the model for type 2 diabetes. The mice were kept on Western HFD for 12 weeks and were divided into five groups with 10 each. Group I: Normal control which had free access to drinking water and normal Chow; Group II: Diabetic control which had free access to drinking water and Western HFD; Group III: Treatment group which had free access to drinking water with 0.01% of pure trans-stilbene glycoside and HFD; Group IV: Treatment group which had free access to drinking water with 0.01% of pure cis-stilbene glycoside and Western HFD. Group V: […] Body weight, food and water uptake of the mice were taken on a regular basis. After 12 weeks, all the experimental mice were sacrificed. Body weight, blood glucose and blood insulin levels were evaluated as described before. Glucose tolerance test was also carried out at the end of the study.

Data set [1] has as its system phosphoenolpyruvate carboxykinase (PEPCK) mRNA expression. Kind of data set: PEPCK assay (qPCR of Dex-cAMP induced PEPCK mRNA) in HepG2 cells. The class given is cell-based. The note with it: for concentration dependence of PEPCK suppression: 30 μM vs 100 μM; for reduction of PEPCK mRNA compared to Dex/cAMP group: comparative Ct method; for suppression of Dex/cAMP-induced up-regulation of PEPCK transcription: normalized with β-actin, FIG. 13A. The method, then: The HepG2 cells were plated in 24-well tissue culture plates and were grown to near confluence in Dulbecco's modified Eagle's medium containing 2.5% (vol/vol) newborn calf serum and 2.5% (vol/vol) fetal calf serum. […]
Total RNA was extracted from HepG2 cells using Trizol reagent, following the manufacturer's instructions. RNA was quantified spectrophotometrically by absorbance measurements at 260 and 280 nm. Quality of RNA was assessed by separation in gel electrophoresis. RNA was then treated with Dnasel (Invitrogen), following the manufacturer's guidelines, to remove any traces of DNA contamination. The cDNAs were synthesized with […] of RNA for each sample, using Stratascript reverse transcriptase (Stratagene, La Jolla, Calif.), following the manufacturer's protocol. The synthesized cDNAs were diluted fourfold. Five microliters of each of these diluted samples was used for PCR reactions of 25 ηL final volume. The other components of the PCR reactions were 0.5 ηL of 6 ηM gene-specific primers and 12.5 ηL of Brilliant SYBR Green PCR master mix (containing green jump-start Taq ready mix). ROX (Stratagene, La Jolla, Calif.) was used as a reference dye. The primers were selected using the Primer Express version 2.0 software (Applied Biosystems, Foster City, Calif.). These primers generated a 76-bp product from β-actin mRNA. The intron-spanning forward primer was selected to cover the exon 9-10 boundary. The reverse primer was selected from exon 10. The oligos were synthesized by IDT. These primers generated a 74-bp product from PEPCK mRNA and a 207-bp product from genomic DNA.
Quantitative PCR (qPCR) amplifications were performed on an MX3000p system (Stratagene, La Jolla, Calif.) using one cycle at 50° C. for 2 min and one cycle of 95° C. for 10 min, followed by 40 cycles of 15 s at 95° C. and 1 min at 60° C. The dissociation curve was completed with one cycle of 1 min at 95° C., 30 s at 55° C., and 30 s at 95° C. Non-RT control and no-template control were included in each experiment as quality control steps.
PEPCK mRNA expressions were analyzed using the ΔΔCT method and normalized with respect to the expression of the β-actin house keeping gene. The ΔΔCT Values obtained from these methods reflect the relative mRNA quantities for a specific gene in response to a treatment as relative to a calibrator. The Dex-cAMP treatment (positive control) served as the calibrator sample in this study. The PECPK gene expression of the calibrator sample was assigned to a value of 1.0. A value of <1.0 indicates transcriptional down-regulation (inhibition of gene expression) relative to the calibrator. Amplification of specific transcripts was further confirmed by obtaining melting curve profiles. All samples were run in duplicate.
A general note: Real-time PCR tracks product formation cycle by cycle.

Another data set deals with female KK mice. Kind of data set: Animal study with trans- and cis-stilbene glycoside extracts in HFD-induced female KK mice. It counts as in vivo. The following applies: 18 weeks HFD, solutions in drinking water. The method, then: Female KK mice were purchased from Jackson labs (Barr Harbor, Me.) and were housed in stainless steel wire-bottomed cages and acclimatized under laboratory conditions (19-23° C., humidity 60%, 12 h light/dark cycle). Normal control mice (n=10) were fed with control diet which was normal Chow 5001 from LabDiet (St. Louis, Mo.) and was composed of 28.5 kcal % protein, 58 kcal % carbohydrate and 13.5 kcal % fat. Diabetic control mice (n=10) were induced with HFD (Research Diets, New Brunswick, N.J.) composed of 20 kcal % protein, 20 kcal % carbohydrate, and 60 kcal % fat (from butter) for 18 weeks. Three solutions were administered to mice (n=10 each) on HFD ad libitum and the compositions are shown below. Solution 1: pure trans-stilbene glycoside (0.05% in drinking water), HPLC chromatogram in FIG. 3.2 (A); Solution 2: 60% ethanol extract of PM root powders, obtained according to procedure in Section 1.2.1 (proportion of cis-stilbene glycoside to trans-stilbene glycoside is approximately 1:20, 0.075% in drinking water), HPLC chromatogram in FIG. 3.2 (B); Solutions 3: obtained from exposing solution 2 under UV-light overnight (proportion of cis-stilbene glycoside to trans-stilbene glycoside is approximately 2:3, 0.075% in drinking water), HPLC chromatogram in FIG. 3.2 (C). After 18 weeks, body weight and blood glucose of all mice were measured.

The conditions of data set [2]: compared with resveratrol; cited from earlier work.
In the next data set the test system is female KK CgAy/J mice. The experiment in a line: Anti-diabetic effect of stilbene glycoside in female KK CgAy/J mice incl. glucose and insulin tolerance tests. The class given is in vivo. The following applies: for blood / serum glucose level vs diabetic control: stilbene glycoside 0.075% in drinking water, metformin 300 mg/kg; for insulin tolerance test: level of glucose: 30 minutes after insulin injection. From the text:
Female KK CgAy/J mice were also utilized in this experiment and handled with the same protocol as in 1.2.3. The mice were divided into four groups with 10 each, and fed with Western HFD. […] Body weight, food and water uptake of the mice were taken on a regular basis. After 12 weeks, all the experimental mice were sacrificed. Similar measurements were taken to the previous experiment with PM extract. Before sacrifice, all the experimental mice were subjected to glucose and insulin tolerance tests. For glucose tolerance test, mice were fasted overnight and injected with glucose solution at 1 g/10 ml and 10 ml/kg body weight. The change in blood glucose level was monitored during the following two hours. For insulin tolerance test, mice were fasted for 5 hours and injected with insulin solution at 1 u/ml and 10 ml/kg body weight. The change in blood glucose level was monitored during the following two hours.

For data set [3] the following is noted: rats, cited from earlier work.
The conditions of data set [4]: cited from earlier work.

As to `Cn1c(=O)c2c(ncn2C)n(C)c1=O` [caffeine, reference compound], in the data set with male CF-1 mice, the serum glucose level entry is reported as “significantly decrease”.

As for `OC[C@H]1O[C@@H](Oc2c(O)cc(O)cc2/C=C/c2ccc(O)cc2)[C@H](O)[C@@H](O)[C@@H]1O` [trans-stilbene glycoside, 2,3,5,4-tetrahydroxystilbene 2-O-β-glucopyranoside], in data set [1], the “concentration dependence of PEPCK suppression” value is recorded as “higher concentration resulted in lower level of PEPCK transcription” and the “suppression of Dex/cAMP-induced up-regulation of PEPCK transcription” value is “effectively suppress”. The “reduction of PEPCK mRNA compared to Dex/cAMP group” value in data set [1] (100 μM) is reported as 53.3%. Besides, in the data set on male CF-1 mice, the “GTT: rise in blood glucose level / effect on glucose intolerance” value is “absent”, the serum insulin levels entry is “significantly lowered” and the serum glucose level entry is given as “significantly decrease”. Further, the “high fat induced body weight gain compared to diabetic control” value with female KK mice is recorded as “none of the three solutions significantly decreased”.

For the compound `OC[C@H]1O[C@@H](Oc2c(O)cc(O)cc2/C=C/c2ccc(O)cc2)[C@H](O)[C@@H](O)[C@@H]1O` [cis-stilbene glycoside, 2,3,5,4-tetrahydroxystilbene 2-O-β-glucopyranoside], in data set [1], the “concentration dependence of PEPCK suppression” value was “suppressed more efficiently at 30 μM than at 100 μM” and the “suppression of Dex/cAMP-induced up-regulation of PEPCK transcription” value is listed as “effectively suppress”. Further, in data set [1] (30 μM), the “reduction of PEPCK mRNA compared to Dex/cAMP group” value worked out at 61.7%. For the same compound, in the data set with male CF-1 mice, the “GTT: rise in blood glucose level / effect on glucose intolerance” value is “greatly suppressed”, the serum insulin levels entry is listed as “significantly lowered” and the serum glucose level result is recorded as “significantly decrease”. Further, the “Calculated HOMA-IR lower than that in trans-stilbene glycoside group” value with male CF-1 mice (cis group relative to trans group) is 102.7%.

Turning to `OC[C@H]1O[C@@H](Oc2c(O)cc(O)cc2/C=C/c2ccc(O)cc2)[C@H](O)[C@@H](O)[C@@H]1O` [stilbene glycoside, 2,3,5,4-tetrahydroxystilbene 2-O-β-glucopyranoside], in data set [2], the antioxidant activity result is recorded as “higher antioxidant activity than resveratrol”. In the data set on female KK CgAy/J mice (12 weeks HFD, 0.075% in drinking water, FIG. 6), the “serum insulin level vs diabetic control” value is recorded as “elevated”. In addition, the “blood / serum glucose level vs diabetic control” value in the data set with female KK CgAy/J mice (12 weeks HFD, FIG. 6) is recorded as “elevated”. Also, in the data set with female KK CgAy/J mice (30 minutes after glucose injection (1 g/kg), FIG. 7A), the “glucose tolerance test: blood glucose level” value is listed as “the most elevated”. In addition, the “insulin tolerance test: level of glucose” value with female KK CgAy/J mice (FIG. 7B) is on record as “higher level of glucose”. Also, in the data set on female KK CgAy/J mice (at the end of the test (two hours), FIG. 7A), the “glucose tolerance test: blood glucose” value is “remained much higher than normal control and metformin groups”. Moreover, the glucose tolerance result in the data set with female KK CgAy/J mice (overall finding of glucose tolerance test) is “glucose intolerant”. In addition, in data set [3] (single intravenous or oral administration), the time of distribution is at most 30 min. Besides, in data set [3] (within 24 hr), the “Total recovery of unchanged stilbene glycoside in bile” value is 0.041%, the “Total recovery of unchanged stilbene glycoside in feces” value was 0.06% and the “amount of unchanged stilbene glycoside excreted in the urine” value was “lower than Lower Limit of Quantification (LLOQ)”. The Absolute bioavailability in data set [3] is recorded as 40%. For the same compound, the form of excretion entry in data set [3] (metabolites including monoglucuronide and the deglycosidated form) is reported as “excreted mainly in the forms of metabolites”. Moreover, in data set [4], the solubility entry was “soluble in water, methanol and ethanol”.

As to `CN(C)C(=N)N=C(N)N` [metformin, reference compound], the “blood / serum glucose level vs diabetic control” value in the data set on female KK CgAy/J mice (12 weeks HFD, FIG. 6) was “effectively brought down”. For the same compound, the “insulin tolerance test: level of glucose” value in the data set with female KK CgAy/J mice (FIG. 7B) is “higher level of glucose”. In addition, the “insulin tolerance test: blood glucose” value in the data set with female KK CgAy/J mice (two hours after insulin injection, FIG. 7B) is reported as “dropped to a lower level than that of stilbene glycoside group”.
